This is an account of results in publication PMC7136958, “Targeting the pregnane X receptor using microbial metabolite mimicry” (EMBO Molecular Medicine, 2020).

Several values for one entry are separate records, joined by “and”; a condition that tells them apart may be missing. Equal entries are not always repeated. Where two headings read alike, the source gives them in different places.

Series [1] deals with ERK4 (Homo sapiens, UniProt P31152). Nature of the series: KINOMEscan select kinase screen. Format: binding. The following applies: two experiments. As to the method: (§1) Kinase Assays. The kinase inhibition assays were conducted by DiscoverX on a platform assay by Ambit BioSciences as described previously 16,17. FKK6 was screened at a single concentration of 10 μM in duplicate. The scanMAXSM assay panel measures 468 kinases
(§2) (https://www.discoverx.com/services/drug-discovery-development-services/kinase-profiling/kinomescan/scanmax). The assays measure a compound’s ability to inhibit binding of a canonical ligand substrate, with 0% activity of control corresponding to full inhibition and 100% activity of control to no inhibition. […]
(§3) quantitative measure of compound selectivity based on the number of kinase hits (enzymes inhibited) divided by the total number of distinct kinases tested. Three different activity cut-offs were analyzed – […]
(§4) ; and S(1) or % activity of control
(§5) < 1. To illustrate effect or lack of effect, an image of the entire family of kinases tested were grouped by families and S(35). The TREEspot Kinase dendrogram image was generated using TREEspot™ Software Tool and reprinted with permission from KINOME scan®, a division of DiscoveRx […]

In series [2] the target is ERK2 (Homo sapiens, UniProt P28482). Nature of the series: KINOMEscan select kinase screen. It counts as binding. The following applies: two experiments. As to the method:
as §1, §2, §3, §4, §5

Series [3] addresses ERK5 (Homo sapiens, UniProt Q13164). Nature of the series: KINOMEscan select kinase screen. Format: binding. The following applies: two experiments. As to the method:
as §1, §2, §3, §4, §5

The target of series [4] is CDK5 (Homo sapiens, UniProt Q00535). Nature of the series: KINOMEscan select kinase screen. The following applies: two experiments. Format: binding. The procedure: as §1, §2, §3, §4, §5
Series [5] addresses GSK3A (Homo sapiens, UniProt P49840). Nature of the series: KINOMEscan select kinase screen. Format: binding. The following applies: two experiments. As to the method:
as §1, §2, §3, §4, §5

The target in series [6] is ERK1 (Homo sapiens, UniProt P27361). Description: KINOMEscan select kinase screen. Format: binding. The following applies: 10000 nM, two experiments. The procedure: as §1, §2, §3, §4, §5
The target in series [7] is T1, IKK-alpha (Homo sapiens, UniProt O15111).
T1 sequence (O15111 1-745): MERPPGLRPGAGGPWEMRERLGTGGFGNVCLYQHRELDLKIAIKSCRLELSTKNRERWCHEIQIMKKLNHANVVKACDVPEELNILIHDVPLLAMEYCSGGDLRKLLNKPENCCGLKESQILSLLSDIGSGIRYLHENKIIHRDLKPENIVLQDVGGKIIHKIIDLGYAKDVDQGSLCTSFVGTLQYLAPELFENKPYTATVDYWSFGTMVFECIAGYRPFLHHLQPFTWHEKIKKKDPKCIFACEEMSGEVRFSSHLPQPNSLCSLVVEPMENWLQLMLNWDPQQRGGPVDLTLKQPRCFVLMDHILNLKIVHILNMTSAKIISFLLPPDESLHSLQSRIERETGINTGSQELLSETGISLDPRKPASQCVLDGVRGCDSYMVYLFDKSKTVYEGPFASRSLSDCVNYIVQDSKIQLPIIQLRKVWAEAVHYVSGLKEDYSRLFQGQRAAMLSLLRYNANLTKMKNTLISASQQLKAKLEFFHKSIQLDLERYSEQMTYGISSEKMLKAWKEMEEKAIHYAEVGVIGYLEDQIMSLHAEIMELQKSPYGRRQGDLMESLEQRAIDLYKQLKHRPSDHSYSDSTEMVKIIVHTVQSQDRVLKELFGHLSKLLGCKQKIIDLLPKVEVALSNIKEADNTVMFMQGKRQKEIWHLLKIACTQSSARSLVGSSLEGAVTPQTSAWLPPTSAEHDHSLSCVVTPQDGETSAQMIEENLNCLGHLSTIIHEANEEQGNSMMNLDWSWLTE
Description: KINOMEscan select kinase screen. The following applies: two experiments. It counts as binding. As to the method:
as §1, §2, §3, §4, §5

Series [8] deals with mdr1. Nature of the series: PXR target gene expression in hPXR mice (mice expressing the human PXR gene) after FKK6 gavage. Format: in vivo, mouse. The following applies: both sexes, C57BL/6-Nr1i2tm1(NR1I2)Arte (hPXR mice), mouse, 500 μM, 5 doses (60 h), individual mice. As to the method: (§6) (Scheer et al, 2010) were administered 10% DMSO (n = 3) or FKK6 (n = 3) in 3 or 5 doses, with each dose interval of 12 h. Each gavage dose volume was 100 μl. 2–4 h after the dosing period, mice were sacrificed, and tissues were harvested for further analysis. The mouse studies were performed three independent times over an 18‐month period. All purchased mice were acclimatized in the Einstein vivarium for ~ 2 weeks before experiments started. […]. The room temperature was maintained at 25 ± 2°C with 55 ± 5% humidity. All studies were approved by the Institute of Animal Studies at the Albert Einstein College of Medicine, INC (IACUC # 20160706, 20160701 and preceding protocols), and specific animal protocols were also approved by additional protocols (IACUC# 20170406, 20170504) and Animal Care and Use Review Office (ACURO) of the US Army Medical Research and Materiel Command (PR160167, W81XWH‐17‐1‐0479). […]
(§7) Mouse small, large intestine and liver samples were collected and total RNAs were […]
(§8) isolated. […] Each tissue PCR was […]
(§9) repeated in quadruplicate. The expression was normalized to internal control, GAPDH. ( b,d) The histograms show mean (95 %CI) values, c, mean (SD) and two way ANOVA followed with Tukey's post hoc test. The entire experiment was repeated n = 3 for reproducibility. The data shown is one representative experiment .

The test system of series [9] is Cyp3a11. The series is described as above. It counts as in vivo, mouse. The following applies: both sexes, C57BL/6-Nr1i2tm1(NR1I2)Arte (hPXR mice), mouse, 500 μM, 5 doses (60 h), individual mice. As to the method: as §6, §7, §8, §9
For series [10], the system named is hPXR mice. The series is described as above. Format: in vivo, mouse. The following applies: for mdr1 fold expression / Cyp3a11 fold expression: Fig 4f. The procedure:
as §6, §7, §8, §9

The mark [11] stands for this setting: 500 μM, 5 doses (60 h), individual mice.

CDK5, sequence (Q00535 whole entry): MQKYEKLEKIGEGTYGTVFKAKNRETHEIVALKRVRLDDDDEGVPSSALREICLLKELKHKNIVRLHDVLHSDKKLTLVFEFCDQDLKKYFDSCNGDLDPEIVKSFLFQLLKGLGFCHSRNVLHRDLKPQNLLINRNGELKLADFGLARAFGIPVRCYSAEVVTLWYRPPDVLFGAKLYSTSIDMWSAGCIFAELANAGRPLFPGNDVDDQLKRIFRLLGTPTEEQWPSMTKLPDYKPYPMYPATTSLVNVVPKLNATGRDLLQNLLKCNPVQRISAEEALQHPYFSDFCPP
ERK2, sequence (P28482 whole entry): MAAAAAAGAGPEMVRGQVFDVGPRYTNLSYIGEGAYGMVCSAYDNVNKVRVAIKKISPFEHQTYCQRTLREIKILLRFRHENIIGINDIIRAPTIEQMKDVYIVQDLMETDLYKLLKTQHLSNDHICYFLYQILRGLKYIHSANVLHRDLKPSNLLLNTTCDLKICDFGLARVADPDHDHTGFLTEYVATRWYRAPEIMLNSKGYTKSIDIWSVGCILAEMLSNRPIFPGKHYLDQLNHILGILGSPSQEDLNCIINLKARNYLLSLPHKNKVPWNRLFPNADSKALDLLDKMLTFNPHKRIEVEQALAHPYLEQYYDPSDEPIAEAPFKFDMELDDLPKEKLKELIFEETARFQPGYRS
ERK5, sequence (Q13164 whole entry): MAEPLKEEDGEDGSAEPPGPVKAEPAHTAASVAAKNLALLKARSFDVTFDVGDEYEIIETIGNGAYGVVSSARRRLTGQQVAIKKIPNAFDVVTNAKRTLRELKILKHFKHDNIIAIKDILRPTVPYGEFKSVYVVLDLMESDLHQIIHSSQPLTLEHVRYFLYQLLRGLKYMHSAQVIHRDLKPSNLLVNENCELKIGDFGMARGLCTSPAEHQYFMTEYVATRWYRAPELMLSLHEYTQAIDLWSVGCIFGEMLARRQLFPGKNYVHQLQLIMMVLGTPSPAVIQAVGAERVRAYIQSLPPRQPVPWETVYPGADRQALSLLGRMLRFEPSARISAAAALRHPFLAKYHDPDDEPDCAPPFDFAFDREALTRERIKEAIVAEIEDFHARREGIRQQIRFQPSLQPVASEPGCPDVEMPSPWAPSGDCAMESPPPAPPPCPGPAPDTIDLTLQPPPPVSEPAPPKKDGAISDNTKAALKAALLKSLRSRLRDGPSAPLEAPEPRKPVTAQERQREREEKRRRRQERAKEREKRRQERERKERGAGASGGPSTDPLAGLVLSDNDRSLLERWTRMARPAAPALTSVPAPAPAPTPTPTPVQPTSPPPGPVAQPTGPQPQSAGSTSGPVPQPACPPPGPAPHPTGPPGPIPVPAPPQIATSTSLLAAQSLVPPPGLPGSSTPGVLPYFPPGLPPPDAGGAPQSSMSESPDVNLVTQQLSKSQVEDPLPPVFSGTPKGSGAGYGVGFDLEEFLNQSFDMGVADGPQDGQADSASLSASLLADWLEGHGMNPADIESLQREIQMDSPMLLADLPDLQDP
GSK3A, sequence (P49840 whole entry): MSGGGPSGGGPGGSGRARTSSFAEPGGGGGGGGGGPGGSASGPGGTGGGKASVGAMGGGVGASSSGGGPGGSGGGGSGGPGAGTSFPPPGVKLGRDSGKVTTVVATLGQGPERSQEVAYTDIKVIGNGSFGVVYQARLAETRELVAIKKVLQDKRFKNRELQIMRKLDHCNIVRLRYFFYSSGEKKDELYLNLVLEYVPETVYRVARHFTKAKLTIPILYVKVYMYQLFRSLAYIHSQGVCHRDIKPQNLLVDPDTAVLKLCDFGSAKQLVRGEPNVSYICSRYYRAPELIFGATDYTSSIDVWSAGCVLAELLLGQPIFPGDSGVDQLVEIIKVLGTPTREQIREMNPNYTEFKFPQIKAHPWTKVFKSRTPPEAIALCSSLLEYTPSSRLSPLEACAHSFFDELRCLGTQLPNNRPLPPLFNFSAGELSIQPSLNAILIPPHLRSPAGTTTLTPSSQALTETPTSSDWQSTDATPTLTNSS
ERK4, sequence (P31152 whole entry): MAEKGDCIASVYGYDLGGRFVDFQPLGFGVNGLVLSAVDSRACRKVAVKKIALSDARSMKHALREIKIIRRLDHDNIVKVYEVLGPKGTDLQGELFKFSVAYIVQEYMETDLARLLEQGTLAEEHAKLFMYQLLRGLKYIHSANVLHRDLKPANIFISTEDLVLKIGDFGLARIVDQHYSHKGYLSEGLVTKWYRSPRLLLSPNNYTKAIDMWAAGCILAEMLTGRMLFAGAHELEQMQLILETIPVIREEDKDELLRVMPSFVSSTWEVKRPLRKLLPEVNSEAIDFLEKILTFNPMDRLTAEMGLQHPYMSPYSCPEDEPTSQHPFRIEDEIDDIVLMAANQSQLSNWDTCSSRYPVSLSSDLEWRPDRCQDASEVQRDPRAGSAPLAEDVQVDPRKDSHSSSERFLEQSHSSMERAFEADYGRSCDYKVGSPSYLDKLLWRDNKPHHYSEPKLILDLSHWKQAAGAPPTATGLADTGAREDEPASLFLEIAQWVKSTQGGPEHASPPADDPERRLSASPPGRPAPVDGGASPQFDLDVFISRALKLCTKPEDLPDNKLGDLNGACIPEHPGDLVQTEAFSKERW
ERK1, sequence (P27361 whole entry): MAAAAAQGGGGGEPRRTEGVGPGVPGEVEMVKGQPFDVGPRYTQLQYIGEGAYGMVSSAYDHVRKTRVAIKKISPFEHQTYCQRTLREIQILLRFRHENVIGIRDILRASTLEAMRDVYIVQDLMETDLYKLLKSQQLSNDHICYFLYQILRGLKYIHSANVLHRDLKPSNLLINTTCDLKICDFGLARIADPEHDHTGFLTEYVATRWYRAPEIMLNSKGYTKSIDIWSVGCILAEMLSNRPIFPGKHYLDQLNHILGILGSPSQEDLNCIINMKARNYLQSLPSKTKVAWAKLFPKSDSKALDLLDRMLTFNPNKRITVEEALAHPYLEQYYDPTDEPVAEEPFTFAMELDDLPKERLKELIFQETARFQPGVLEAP

In the case of `O=C(c1ccncc1)c1cc2ccccc2n1S(=O)(=O)c1ccccc1` [FKK5, (1-(phenylsulfonyl)-1H-indol-2-yl)(pyridin-4-yl)methanone], the “%Ctrl” value is recorded as 82 %Ctrl in [1] (10000 nM, 10 µM); 91 %Ctrl in series [1] (25000 nM, 25 µM); 100 %Ctrl in [2] (10000 nM, 10 µM); 85 %Ctrl in [2] (25000 nM, 25 µM); 79 %Ctrl in [3] (10000 nM, 10 µM); 92 %Ctrl in series [3] (25000 nM, 25 µM). Further, the “%Ctrl” value in [4] (10000 nM, 10 µM) was 77 %Ctrl and 100 %Ctrl; in series [4] (25000 nM, 25 µM), 61 %Ctrl and 100 %Ctrl; in series [5] (10000 nM, 10 µM), 92 %Ctrl; in [5] (25000 nM, 25 µM), 49 %Ctrl and 77 %Ctrl; in [6] (10 µM), 100 %Ctrl; in [7] (10000 nM, 10 µM), 86 %Ctrl. In addition, the “%Ctrl” value in series [7] (25000 nM, 25 µM) is listed as 100 %Ctrl. Besides, the remaining binding at 10 µM in series [1] (10000 nM, read-out: %Ctrl) came out at 97%; in series [2] (10000 nM, read-out: %Ctrl), 99%; in series [3] (10000 nM, read-out: %Ctrl), 94%; in [5] (10000 nM, read-out: %Ctrl), 79%; in series [6] (read-out: %Ctrl), 86%; in [7] (10000 nM, read-out: %Ctrl), 96%. Besides, the remaining binding at 25 µM stood at 89% in series [1] (25000 nM, read-out: %Ctrl); 94% in series [2] (25000 nM, read-out: %Ctrl); 100% in [3] (25000 nM, read-out: %Ctrl); 83% in series [7] (25000 nM, read-out: %Ctrl).
For `C#CCC(O)(c1ccncc1)c1cc2ccccc2n1S(=O)(=O)c1ccccc1` (stereo not drawn) [FKK6], the fold induction at 60 h, 500 µM in series [8] (in vivo, read-out: mdr1 fold induction, Large Intestine) was found to be 1.85; in [8] (large intestine, oral, read-out: mdr1 fold induction, Large Intestine), 1.96; in series [8] (small intestine, oral, read-out: mdr1 fold induction, Small Intestine) it was 1.84; in series [9] (in vivo, read-out: Cyp3a11 fold induction, Liver), 1.81; in [9] (in vivo, read-out: Cyp3a11 fold induction, Small Intestine) it was 1.85; in series [9] (large intestine, oral, read-out: Cyp3a11 fold induction, Large Intestine) it was 0.87. Also, the fold induction at 60 h, 500 µM stood at 0.75 in series [9] (liver, oral, read-out: Cyp3a11 fold induction, Liver) and 0.85 in series [9] (small intestine, oral, read-out: Cyp3a11 fold induction, Small Intestine). In addition, the “Cyp3a11 fold induction, Large Intestine” value in series [10] (setting [11]) is reported as 0.5 fold. Further, in series [10] (setting [11]), the “Cyp3a11 fold induction, Liver” value was 0.51 fold. Further, the “Cyp3a11 fold induction, Small Intestine” value in series [10] (setting [11]) was 0.81 fold. Further, in series [10] (setting [11]), the “mdr1 fold induction, Large Intestine” value is listed as 2.03 fold. In addition, the “mdr1 fold induction, Liver” value in series [10] (setting [11]) was “distinct increase and 4.6 fold and 5.65 fold and 2.73 fold”. The “mdr1 fold induction, Small Intestine” value in series [10] (setting [11]) is 1.7 fold and 2.02 fold. Also, the mdr1 fold expression in series [10] (Large Intestine) was 2.55 fold; in [10] (Liver), 0.93 fold and 1.05 fold and 1.28 fold; in series [10] (Small Intestine) it was 1.46 fold and 1.56 fold and 1.59 fold. Besides, the Cyp3a11 fold expression in series [10] (Liver) is 2.01 fold and 1.78 fold and 1.23 fold; in series [10] (Small Intestine) it was 3.71 fold and 3.81 fold and 4.42 fold.
